Measurements as given in US9255101B2 (BIOPROJECT, priority 2012, dated 2016).
Where a name gives a salt, the structure may show the parent alone.

Columns and labels:
human H4 receptor [1] = target: T1, human H4 receptor (Homo sapiens, UniProt Q9H3N8); test: biochemical
human H4 receptor [2] = target: T1, human H4 receptor; test: biochemical; remark: listed apart in the source
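For IC50 in this document: membranes from SH-SY5Y cells with stable human H4 receptor expression, incubated with GDP 10 µM, radioactivity retained on filters counted by liquid scintillation.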
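For Ki in this document: radioligand displacement of a [3H]-labelled ligand from membranes of CHO cells stably expressing human H4 receptor, bound radioactivity counted on filters by liquid scintillation.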

Ki (human H4 receptor [1])	melting point	IC50 (human H4 receptor [2])	SMILES
< 300 nM	126 °C		CN1CCC(OC2c3ccccc3CCn3cc(I)nc32)CC1 (stereo not drawn) [Example 2, 2-iodo-4-(1-methylpiperidin-4-yloxy)-9,10-dihydro-4H-3,10a-diaza-benzo[f]azulene]
< 300 nM	163 °C		CN1CCC(OC2c3ccccc3CCn3c(I)cnc32)CC1 (stereo not drawn) [Example 3, 1-iodo-4-(1-methylpiperidin-4-yloxy)-9,10-dihydro-4H-3,10a-diaza-benzo[f]azulene]
< 1000 nM	100 °C		CN1CC(COC2c3ccccc3CCn3cc(I)nc32)C1 (stereo not drawn) [Example 7, 2-Iodo-4-(1-methylazetidin-3-ylmethoxy)-9,10-dihydro-4H-3,10a-diaza-benzo[f]azulene]
< 1000 nM	197 °C		CN1CCC(OC2c3ccccc3CCn3cc(-c4ccc(N)cc4)nc32)CC1 (stereo not drawn) [Example 16, 4-[4-(1-methylpiperidin-4-yloxy)-9,10-dihydro-4H-3,10a-diaza-benzo[f]azulen-2-yl]-phenylamine]
< 300 nM	120 °C		CN1CCC(OC2c3ccccc3CCn3cc(-c4ccc(NC(=O)C(C)(C)C)cc4)nc32)CC1 (stereo not drawn) [Example 58, 2,2-dimethyl-N-{4-[4-(1-methylpiperidin-4-yloxy)-9,10-dihydro-4H-3,10a-diaza-benzo[f]azulen-2-yl]-phenyl}-propionamide]
< 30 nM		< 30 nM	CN1CCC(OC2c3ccccc3CCn3cc(CCCC4CCCC4)nc32)CC1 (stereo not drawn) [Example 105, 2-(3-cyclopentylpropyl)-4-(1-methylpiperidin-4-yloxy)-9,10-dihydro-4H-3,10a-diaza-benzo[f]azulene]
< 30 nM		< 30 nM	CN1CCC(OC2c3ccccc3CCn3cc(C=Cc4ccsc4)nc32)CC1 (stereo not drawn) [Example 112, 4-(1-methylpiperidin-4-yloxy)-2-(2-thiophen-3-ylvinyl)-9,10-dihydro-4H-3,10a-diaza-benzo[f]azulene]
< 30 nM		< 30 nM	CN1CCC(OC2c3ccccc3CCn3cc(SCCc4ccccc4)nc32)CC1 (stereo not drawn) [Example 119, 4-(1-methylpiperidin-4-yloxy)-2-phenethylsulfanyl-9,10-dihydro-4H-3,10a-diaza-benzo[f]azulene]
< 30 nM		< 30 nM	CCc1c(-c2ccccc2)nc2n1CCc1ccccc1C2OC1CCN(C)CC1 (stereo not drawn) [Example 120, 1-ethyl-4-(1-methylpiperidin-4-yloxy)-2-phenyl-9,10-dihydro-4H-3,10a-diaza-benzo[f]azulene oxalate]
< 30 nM		< 30 nM	CN1CCC(OC2c3ccccc3CCn3cc(C=CCOc4ccccc4)nc32)CC1 (stereo not drawn) [Example 121, 4-(1-methylpiperidin-4-yloxy)-2-(3-phenoxypropenyl)-9,10-dihydro-4H-3,10a-diaza-benzo[f]azulene]
< 30 nM		< 30 nM	Cc1c(-c2ccc(Br)cc2)nc2n1CCc1ccccc1C2OC1CCN(C)CC1 (stereo not drawn) [Example 122, 2-(4-bromophenyl)-1-methyl-4-(1-methylpiperidin-4-yloxy)-9,10-dihydro-4H-3,10a-diaza-benzo[f]azulene]
< 30 nM		< 30 nM	Cc1c(-c2ccc(N(C)C(=O)OC(C)(C)C)cc2)nc2n1CCc1ccccc1C2OC1CCN(C)CC1 (stereo not drawn) [Example 125, methyl-{4-[1-methyl-4-(1-methylpiperidin-4-yloxy)-9,10-dihydro-4H-3,10a-diaza-benzo[f]azulen-2-yl]-phenyl}carbamic acid tert-butyl ester]
< 30 nM		< 30 nM	CN1CCC(OC2c3ccccc3CCn3cc(CCCCc4ccccc4)nc32)CC1 (stereo not drawn) [Example 129, 4-(1-methylpiperidin-4-yloxy)-2-(4-phenylbutyl)-9,10-dihydro-4H-3,10a-diaza-benzo[f]azulene oxalate]
< 30 nM		< 30 nM	Cc1c(-c2ccc(NC(=O)OC(C)(C)C)cc2)nc2n1CCc1ccccc1C2OC1CCN(C)CC1 (stereo not drawn) [Example 130, {4-[1-methyl-4-(1-methylpiperidin-4-yloxy)-9,10-dihydro-4H-3,10a-diaza-benzo[f]azulen-2-yl]-phenyl}-carbamic acid tert-butyl ester]
< 30 nM		< 30 nM	CN1CCC(OC2c3ccccc3CCn3c2nc(-c2ccccc2)c3Cl)CC1 (stereo not drawn) [Example 134, 1-chloro-4-(1-methylpiperidin-4-yloxy)-2-phenyl-9,10-dihydro-4H-3,10a-diaza-benzo[f]azulene]
< 30 nM		< 30 nM	CN1CCC(OC2c3ccccc3CCn3c2nc(CCCCCc2ccccc2)c3Cl)CC1 (stereo not drawn) [Example 139, 1-chloro-4-(1-methylpiperidin-4-yloxy)-2-(5-phenylpentyl)-9,10-dihydro-4H-3,10a-diaza-benzo[f]azulene oxalate]

Ki (human H4 receptor [1])	melting point	IC50 (human H4 receptor [2])	SMILES
< 30 nM		< 300 nM	Cc1c(-c2ccc(N3CCN(C(C)(C)C)C3=O)cc2)nc2n1CCc1ccccc1C2OC1CCN(C)CC1 (stereo not drawn) [Example 140, 1-tert-butyl-3-{4-[1-methyl-4-(1-methylpiperidin-4-yloxy)-9,10-dihydro-4H-3,10a-diaza-benzo[f]azulen-2-yl]-phenyl}-imidazolidin-2-one]
< 30 nM		< 30 nM	Cc1c(-c2ccc(SC(C)(C)CCO)cc2)nc2n1CCc1ccccc1C2OC1CCN(C)CC1 (stereo not drawn) [Example 152, 3-methyl-3-{4-[1-methyl-4-(1-methylpiperidin-4-yloxy)-9,10-dihydro-4H-3,10a-diaza-benzo[f]azulen-2-yl]-phenylsulfanyl}-butan-1-ol]
< 30 nM		< 30 nM	Cc1c(-c2ccc(C=CS(C)(=O)=O)cc2)nc2n1CCc1ccccc1C2OC1CCN(C)CC1 (stereo not drawn) [Example 158, 2-[4-(2-methanesulfonyl-vinyl)-phenyl]-1-methyl-4-(1-methylpiperidin-4-yloxy)-9,10-dihydro-4H-3,10a-diaza-benzo[f]azulene]
< 30 nM		< 30 nM	Cc1c(-c2ccc(SCCN)cc2)nc2n1CCc1ccccc1C2OC1CCN(C)CC1 (stereo not drawn) [Example 161, 2-{4-[1-methyl-4-(1-methylpiperidin-4-yloxy)-9,10-dihydro-4H-3,10a-diaza-benzo[f]azulen-2-yl]-phenylsulfanyl}-ethylamine oxalate]
< 30 nM		< 30 nM	CC(=O)NCCSc1ccc(-c2nc3n(c2C)CCc2ccccc2C3OC2CCN(C)CC2)cc1 (stereo not drawn) [Example 163, N-(2-{4-[1-methyl-4-(1-methylpiperidin-4-yloxy)-9,10-dihydro-4H-3,10a-diaza-benzo[f]azulen-2-yl]-phenylsulfanyl}-ethyl)-acetamide oxalate]
< 30 nM		< 30 nM	Cc1c(-c2ccc(SCc3ccccc3)cc2)nc2n1CCc1ccccc1C2OC1CCN(C)CC1 (stereo not drawn) [Example 164, 2-(4-benzylsulfanylphenyl)-1-methyl-4-(1-methylpiperidin-4-yloxy)-9,10-dihydro-4H-3,10a-diaza-benzo[f]azulene oxalate]
< 30 nM		< 30 nM	Cc1c(-c2ccc(SCc3ccco3)cc2)nc2n1CCc1ccccc1C2OC1CCN(C)CC1 (stereo not drawn) [Example 167, 2-[4-(furan-2-ylmethylsulfanyl)-phenyl]-1-methyl-4-(1-methylpiperidin-4-yloxy)-9,10-dihydro-4H-3,10a-diaza-benzo[f]azulene oxalate]
< 300 nM		< 300 nM	CN1CCC(OC2c3ccccc3CCn3cc(-c4ccc(CN5CCCCCC5=O)cc4)nc32)CC1 (stereo not drawn) [Example 188, 1-{4-[4-(1-methylpiperidin-4-yloxy)-9,10-dihydro-4H-3,10a-diaza-benzo[f]azulen-2-yl]benzyl}-azepan-2-one]
< 30 nM		< 30 nM	Cc1c(-c2ccc(NC(=S)NC(C)C)cc2)nc2n1CCc1ccccc1C2OC1CCN(C)CC1 (stereo not drawn) [Example 206, 1-isopropyl-3-{4-[1-methyl-4-(1-methylpiperidin-4-yloxy)-9,10-dihydro-4H-3,10a-diazabenzo[f]azulen-2-yl]-phenyl}-thiourea]
< 30 nM		< 30 nM	CN1CCC(OC2c3ccccc3CCn3c2nc(I)c3I)CC1 (stereo not drawn) [Example 219, 1,2-diiodo-4-(1-methylpiperidin-4-yloxy)-9,10-dihydro-4H-3,10a-diaza-benzo[f]azulene]
	161 °C		Cc1c(C(=O)NCc2ccccc2)nc2n1CCc1ccccc1C2OC1CCN(C)CC1 (stereo not drawn) [Example 222, 1-methyl-4-(1-methylpiperidin-4-yloxy)-9,10-dihydro-4H-3,10a-diaza-benzo[f]azulene-2-carboxylic acid benzylamide]
< 30 nM		< 30 nM	Cc1c(C=CC(C)(C)C)nc2n1CCc1ccccc1C2OC1CCN(C)CC1 (stereo not drawn) [Example 225, 2-(3,3-dimethyl-but-1-enyl)-1-methyl-4-(1-methylpiperidin-4-yloxy)-9,10-dihydro-4H-3,10a-diaza-benzo[f]azulene]
< 30 nM		< 30 nM	Cc1c(C2=CCCCC2)nc2n1CCc1ccccc1C2OC1CCN(C)CC1 (stereo not drawn) [Example 226, 2-cyclohex-1-enyl-1-methyl-4-(1-methylpiperidin-4-yloxy)-9,10-dihydro-4H-3,10a-diaza-benzo[f]azulene]
< 300 nM		< 300 nM	CN1CCC(OC2c3ccccc3CCn3c2nc(-c2ccccc2)c3C(N)=O)CC1 (stereo not drawn) [Example 254, 4-(1-methylpiperidin-4-yloxy)-2-phenyl-9,10-dihydro-4H-3,10a-diaza-benzo[f]azulene-1-carboxylic acid amide]
< 30 nM		< 300 nM	CN1CCC(OC2c3ccccc3CCn3c2nc(-c2ccccc2)c3C(F)(F)F)CC1 (stereo not drawn) [Example 255, 4-(1-methylpiperidin-4-yloxy)-2-phenyl-1-trifluoromethyl-9,10-dihydro-4H-3,10a-diaza-benzo[f]azulene]
< 300 nM		< 300 nM	C=C(C)Cc1nc2n(c1C#N)CCc1ccccc1C2OC1CCN(C)CC1 (stereo not drawn) [Example 259, 2-(2-methylallyl)-4-(1-methylpiperidin-4-yloxy)-9,10-dihydro-4H-3,10a-diaza-benzo[f]azulene-1-carbonitrile]
